In the series the test system is gingival fibroblasts. The method, then: To determine whether the co-administration of these two compounds was cytotoxic, the following experiments were carried out.

SMILES strings stand for the structures.

Take `C[C@H]1c2cccc(O)c2C(=O)C2=C(O)[C@]3(O)C(=O)C(C(N)=O)=C(O)[C@@H](N(C)C)[C@@H]3[C@@H](O)[C@@H]21` [doxycycline]: the “cytotoxicity (in words)” value is listed as “relatively increasing cytotoxicity with increasing concentration” and the relative cytotoxicity lay within 0 to 0.231 mg/mL.
For the compound `CC(C(=O)O)c1ccc(-c2ccccc2)c(F)c1` (stereo not shown) [flurbiprofen], the “cytotoxicity (in words)” value is reported as “relatively low cytotoxicity” and the relative cytotoxicity fell in the range of 0 to 0.031 mg/mL.

Source of the values: patent US20140205662A1, “SYSTEM AND METHOD FOR […] TIMED LOCAL […] OF A COMBINATION PHARMACEUTICAL PREPARATION FOR ORAL THERAPY” (The Research Foundation for The State University of New York, priority 2010, published 2014).
